≈ marks a conversion by molar mass, not a printed value. Calls of active or inactive are those of the source. The rule behind the calls is not given here.
How the values were obtained:
[1] = Plasma protein binding in human assessed as free fraction; assay type: ADME, cell-free
[2] = target: T1, Tyrosine-protein kinase JAK1 (Homo sapiens, UniProt P23458); assay: Inhibition of N-terminal GST-tagged human recombinant JAK1 (866 to 1154 residues) expressed in insect cells using FITC-C6-KKHTDDGYMPMSPGVA-NH peptide as substrate incubated for 10 mins measured after 90 mins in presence of ATP by caliper mobility shift assay
[3] = Distribution coefficient between 1-Octanol and aqueous phosphate buffer, logD of the compound at pH 7.4 by shake-flask method; assay type: physicochemical; conditions: 1-octanol/aqueous phosphate buffer, read-out: logD
[4] = Inhibition of JAK/STAT signaling pathway in human U-937 cells assessed as inhibition of IL-4 stimulated STAT6 phosphorylation; assay type: cell-based
[5] = Inhibition of JAK/STAT signaling pathway in human U-937 cells assessed as inhibition of IL-13 stimulated STAT6 phosphorylation; assay type: cell-based
[6] = Solubility in phosphate buffer at pH 7.4; assay type: physicochemical
[7] = tested on: CD4+ T cell; assay: Antiinflammatory activity in human CD4+ T cell assessed as reduction in CD25 expression measured after 5 days by eFluor780 staining based flow cytometry analysis; assay type: functional; conditions: dose 1-10000 nM, time 5.0 day
[8] = tested on: Th1 cell; assay: Inhibition of human naive Th1 cell differentiation assessed as decrease in IFNg production measured after 5 days by MSD assay; assay type: functional, cell-based; conditions: dose 1-10000 nM, time 5.0 day
[9] = Inhibition of JAK/STAT signaling pathway in human CD4+ T cell assessed as inhibition of IL-4 stimulated STAT6 phosphorylation preincubated for 20 to 60 mins followed by IL-4 stimulation measured after 15 mins by flow cytometry analysis; assay type: cell-based
[10] = (§1) Inhibition of JAK/STAT signaling pathway in human CD14-positive cell monocytes isolated from human PBMC assessed as inhibition of IL-13 stimulated STAT6 phosphorylation preincubated for 20 to 60 mins followed by IL-13 stimulation measured after 15 mins by flow cytometry analysis; assay type: cell-based
[11] = tested on: Th2 cell; assay: Inhibition of human naive Th2 cell differentiation assessed as decrease in IL-5 production measured after 5 days by MSD assay; assay type: functional, cell-based; conditions: time 5.0 day
[12] = Toxicity in human naive Th1 cell assessed as reduction in cell viability at 1 to 10000 nM; assay type: cell-based; conditions: 10 µM, dose 1-10000 nM
[13] = tested on: Th17; assay: Inhibition of human memory-derived Th17 cell differentiation assessed as decrease in IL-17 production measured after 5 days by MSD assay; assay type: functional, cell-based; conditions: time 5.0 day
[14] = Toxicity in human naive Th2 cell assessed as reduction in cell viability at 1 to 10000 nM; assay type: cell-based; conditions: 10 µM, dose 1-10000 nM
[15] = tested on: Th2 cell; assay: Inhibition of human naive Th2 cell differentiation assessed as decrease in IL-4 production measured after 5 days by MSD assay; assay type: functional, cell-based; conditions: dose 1-10000 nM, time 5.0 day
[16] = tested on: Th2 cell; assay: Inhibition of human naive Th2 cell differentiation assessed as decrease in IL-13 production measured after 5 days by MSD assay; assay type: functional, cell-based; conditions: time 5.0 day
[17] = Toxicity in human CD4+ T cell assessed as reduction in cell viability measured after 5 days by eFluor780 staining based flow cytometry analysis; conditions: 120 h, dose 1-10000 nM, time 5 day
[18] = Toxicity in human memory-derived Th17 cells assessed as reduction in cell viability at 1 to 10000 nM; assay type: cell-based; conditions: th17, 10 µM, dose 1-10000 nM
[19] = Inhibition of JAK/STAT signaling pathway in human CD14-positive cell monocytes isolated from human PBMC assessed as inhibition of IL-4 stimulated STAT6 phosphorylation preincubated for 20 to 60 mins followed by IL-4 stimulation measured after 15 mins by flow cytometry analysis; assay type: cell-based
[20] = target: Tyrosine-protein kinase JAK2 (Homo sapiens, UniProt O60674); assay: Inhibition of N-terminal GST-tagged human recombinant JAK2 (831 to 1132 residues) expressed in insect cells using 5FAM-GEEPLYWSFPAKKK-NH2 peptide as substrate incubated for 10 mins measured after 90 mins in presence of ATP by caliper mobility shift assay
[21] = target: T2, Tyrosine-protein kinase JAK3 (Homo sapiens, UniProt P52333); assay: Inhibition of N-terminal GST-tagged human recombinant JAK3 (781 to 1124 residues) expressed in insect cells using 5FAM-GEEPLYWSFPAKKK-NH2 peptide as substrate incubated for 10 mins measured after 90 mins in presence of ATP by caliper mobility shift assay
T2 sequence (P52333 whole entry): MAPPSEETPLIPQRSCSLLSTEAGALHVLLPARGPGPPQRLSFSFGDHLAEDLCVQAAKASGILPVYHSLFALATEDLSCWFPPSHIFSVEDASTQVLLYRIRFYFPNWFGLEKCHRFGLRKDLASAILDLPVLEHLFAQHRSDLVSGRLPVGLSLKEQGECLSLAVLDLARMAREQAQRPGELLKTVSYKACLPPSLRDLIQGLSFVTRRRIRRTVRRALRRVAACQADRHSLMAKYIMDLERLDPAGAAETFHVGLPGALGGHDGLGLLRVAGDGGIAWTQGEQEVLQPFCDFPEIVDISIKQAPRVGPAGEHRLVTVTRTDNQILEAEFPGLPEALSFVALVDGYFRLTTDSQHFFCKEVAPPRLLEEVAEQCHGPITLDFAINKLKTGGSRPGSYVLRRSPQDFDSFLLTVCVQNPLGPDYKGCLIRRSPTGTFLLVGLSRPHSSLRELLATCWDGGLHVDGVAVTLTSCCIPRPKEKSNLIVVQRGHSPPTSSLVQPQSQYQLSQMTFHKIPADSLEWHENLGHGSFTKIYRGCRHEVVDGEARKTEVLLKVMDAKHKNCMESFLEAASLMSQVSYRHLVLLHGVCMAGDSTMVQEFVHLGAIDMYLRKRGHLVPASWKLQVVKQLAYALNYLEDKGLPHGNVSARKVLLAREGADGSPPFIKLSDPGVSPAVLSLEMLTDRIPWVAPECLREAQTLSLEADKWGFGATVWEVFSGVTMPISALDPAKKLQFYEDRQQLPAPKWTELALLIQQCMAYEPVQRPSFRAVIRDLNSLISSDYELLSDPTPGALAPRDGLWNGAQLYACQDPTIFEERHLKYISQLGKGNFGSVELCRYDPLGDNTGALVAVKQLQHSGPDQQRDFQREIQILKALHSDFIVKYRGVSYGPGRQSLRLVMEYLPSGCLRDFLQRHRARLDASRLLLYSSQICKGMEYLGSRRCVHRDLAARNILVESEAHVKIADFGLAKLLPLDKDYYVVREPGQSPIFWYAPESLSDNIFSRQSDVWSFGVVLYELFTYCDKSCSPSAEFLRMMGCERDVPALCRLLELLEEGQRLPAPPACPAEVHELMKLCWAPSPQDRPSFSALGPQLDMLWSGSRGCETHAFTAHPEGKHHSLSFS

[22] = Apparent permeability of compound across apical to basolateral side in human Caco-2 cells at pH 7.4; assay type: ADME, cell-based; conditions: Caco-2, pH 7.4
[23] = Thermodynamic solubility of the compound in phosphate buffer at pH 7.4 measured after 24 hrs by HPLC-MS analysis; assay type: physicochemical; conditions: read-out: Therm_solubility
[24] = AUC(0 to 24 hrs) in rat at 0.020 micromol/kg, IT; assay type: ADME; set-up: dose 0.02 µmol/kg, route it; conditions: in vivo, 0.02 µmol/kg
[25] = Volume of distribution at steady state in Han Wistar rat at 0.5 mg/kg, iv; assay type: ADME, organism-based; conditions: in vivo, read-out: Vdss
[26] = Efflux ratio of apparent permeability across apical to basolateral side in human Caco-2 cells at pH 7.4; assay type: ADME, cell-based; conditions: Caco-2, pH 7.4
[27] = Drug uptake in lung of rat at 0.020 micromol/kg, IT; assay type: ADME, tissue-based; conditions: in vivo, other, dose 0.02 µmol/kg
[28] = target: T1, Tyrosine-protein kinase JAK1; assay: Inhibition of JAK1 in human CD14-positive cell monocytes isolated from human PBMC assessed as reduction in mature dendritic phenotype by measuring CD11c expression level at 100 nM measured after 5 days by CD11c PE-CF594 staining based flow cytometry analysis; conditions: time 5.0 day
[29] = target: T1, Tyrosine-protein kinase JAK1; assay: Inhibition of JAK1 in human CD14-positive cell monocytes isolated from human PBMC assessed as reduction in mature dendritic phenotype by measuring CD14 expression level at 100 nM measured after 5 days by CD14 APC staining based flow cytometry analysis; conditions: time 5.0 day
[30] = tested on: CD14-positive cell; assay: as §1; assay type: cell-based; conditions: time 35-75 min
[31] = Thermodynamic solubility of the compound in phosphate buffer at pH 6.5 measured after 24 hrs by HPLC-MS analysis; assay type: physicochemical; conditions: read-out: Therm_solubility

T1 sequence (P23458 whole entry, the tested form may be a part): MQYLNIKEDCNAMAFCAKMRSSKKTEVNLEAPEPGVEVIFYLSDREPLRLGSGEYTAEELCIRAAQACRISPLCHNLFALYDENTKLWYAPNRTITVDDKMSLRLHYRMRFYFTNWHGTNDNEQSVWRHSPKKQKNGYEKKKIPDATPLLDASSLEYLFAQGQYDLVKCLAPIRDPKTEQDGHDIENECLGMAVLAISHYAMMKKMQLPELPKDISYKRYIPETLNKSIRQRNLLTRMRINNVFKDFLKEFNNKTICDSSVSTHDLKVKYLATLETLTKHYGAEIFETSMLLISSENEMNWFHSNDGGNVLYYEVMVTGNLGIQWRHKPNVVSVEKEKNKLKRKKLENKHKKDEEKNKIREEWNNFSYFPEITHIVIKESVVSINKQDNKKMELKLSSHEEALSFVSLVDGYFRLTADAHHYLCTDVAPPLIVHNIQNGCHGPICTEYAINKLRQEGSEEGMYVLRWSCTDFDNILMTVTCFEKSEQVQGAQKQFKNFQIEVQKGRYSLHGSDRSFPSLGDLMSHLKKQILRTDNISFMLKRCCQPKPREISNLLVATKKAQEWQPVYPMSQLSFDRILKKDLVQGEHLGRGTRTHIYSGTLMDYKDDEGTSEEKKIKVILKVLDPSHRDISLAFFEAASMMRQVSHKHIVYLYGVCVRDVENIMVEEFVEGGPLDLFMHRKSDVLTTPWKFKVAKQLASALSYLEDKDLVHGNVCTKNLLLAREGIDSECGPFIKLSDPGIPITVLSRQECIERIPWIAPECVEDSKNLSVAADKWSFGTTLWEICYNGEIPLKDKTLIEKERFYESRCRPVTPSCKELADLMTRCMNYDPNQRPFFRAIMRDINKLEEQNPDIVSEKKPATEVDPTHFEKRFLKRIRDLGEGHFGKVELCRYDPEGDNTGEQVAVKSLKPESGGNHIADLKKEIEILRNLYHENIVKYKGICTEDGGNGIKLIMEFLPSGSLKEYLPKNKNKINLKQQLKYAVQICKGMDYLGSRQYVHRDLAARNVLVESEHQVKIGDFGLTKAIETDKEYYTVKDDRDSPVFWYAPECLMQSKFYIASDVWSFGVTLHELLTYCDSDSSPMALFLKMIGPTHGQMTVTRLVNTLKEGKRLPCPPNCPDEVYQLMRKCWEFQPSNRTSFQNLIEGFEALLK
Sequence of Tyrosine-protein kinase JAK2 (O60674 whole entry, the tested form may be a part): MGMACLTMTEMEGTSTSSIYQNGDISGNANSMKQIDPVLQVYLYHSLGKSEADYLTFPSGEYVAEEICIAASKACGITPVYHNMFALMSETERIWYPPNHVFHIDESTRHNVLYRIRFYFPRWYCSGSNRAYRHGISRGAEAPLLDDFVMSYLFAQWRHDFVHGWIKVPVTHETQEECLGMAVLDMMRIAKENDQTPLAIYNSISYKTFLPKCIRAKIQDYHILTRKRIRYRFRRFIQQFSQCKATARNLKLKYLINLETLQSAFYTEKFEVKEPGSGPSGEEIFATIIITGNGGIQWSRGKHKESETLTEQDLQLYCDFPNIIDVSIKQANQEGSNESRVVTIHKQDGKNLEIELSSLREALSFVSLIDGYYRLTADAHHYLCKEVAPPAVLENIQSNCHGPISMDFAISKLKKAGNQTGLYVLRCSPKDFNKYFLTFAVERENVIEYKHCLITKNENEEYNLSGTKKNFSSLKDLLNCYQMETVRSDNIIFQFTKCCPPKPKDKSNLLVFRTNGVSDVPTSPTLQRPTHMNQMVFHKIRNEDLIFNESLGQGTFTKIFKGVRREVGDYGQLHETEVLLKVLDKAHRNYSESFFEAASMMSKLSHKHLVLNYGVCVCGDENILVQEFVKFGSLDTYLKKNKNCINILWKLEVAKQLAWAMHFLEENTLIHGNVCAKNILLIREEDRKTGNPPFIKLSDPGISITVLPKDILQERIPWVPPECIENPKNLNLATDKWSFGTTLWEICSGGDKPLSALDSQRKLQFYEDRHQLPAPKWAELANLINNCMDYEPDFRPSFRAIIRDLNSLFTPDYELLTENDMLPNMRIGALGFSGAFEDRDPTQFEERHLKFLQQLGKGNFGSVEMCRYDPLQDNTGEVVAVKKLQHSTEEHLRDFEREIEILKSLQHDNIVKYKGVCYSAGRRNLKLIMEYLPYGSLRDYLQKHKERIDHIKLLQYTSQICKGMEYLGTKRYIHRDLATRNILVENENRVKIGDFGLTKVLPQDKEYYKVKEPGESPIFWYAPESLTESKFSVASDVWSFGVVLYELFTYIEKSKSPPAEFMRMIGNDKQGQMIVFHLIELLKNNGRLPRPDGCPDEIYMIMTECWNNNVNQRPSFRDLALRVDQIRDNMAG

Compound | fraction unbound [1] | IC50 [2] [nM] | logD [3] | IC50 [4] [nM] | IC50 [5] [nM] | solubility [6] [µM] | Papp A→B [22] [×10⁻⁶ cm/s] | AUC(0-t) [24] [µM·h] | Drug uptake [27] | further results
CC[C@H](C(=O)Nc1cccc2c(-c3nc(Nc4cccc(S(C)(=O)=O)c4F)ncc3F)c[nH]c12)N1CCN(C)CC1 | 0.05 | ≤ 3 | 3.3 | 27 | 43 | 9 (≈ 5.25 µg/mL) | – | – | – | –
C[C@@H]1CCN(C(=O)CC#N)C[C@@H]1N(C)c1ncnc2[nH]ccc12 [TOFACITINIB] | – | – | – | – | – | – | – | – | – | Activity [7]: Dose-Dependent Effect; inhibition [8]: Dose-Dependent Effect; IC50 [9]: 53 nM; IC50 [10]: 57 nM; inhibition [11]: Dose-Dependent Effect; Activity [12]: Non-Toxic; inhibition [13]: Dose-Dependent Effect; Activity [14]: Non-Toxic; inhibition [15]: Dose-Dependent Effect; inhibition [16]: Dose-Dependent Effect; Activity [17]: Dose-Dependent Effect; Activity [18]: Non-Toxic; IC50 [19]: 65 nM
C[C@H](C(=O)Nc1cccc2c(-c3nc(Nc4cccc(S(C)(=O)=O)c4F)ncc3F)c[nH]c12)N1CCN(C)CC1 | 0.06 | 20 | 2.7 | 42 | 56 | 14 (≈ 7.97 µg/mL) | – | – | – | IC50 [20]: 17500 nM; IC50 [21]: > 30000 nM
Cc1cnc(Nc2cccc(S(C)(=O)=O)c2F)nc1-c1c[nH]c2c(NC(=O)[C@@H](C)N3CCN(C)CC3)cccc12 | 0.06 | ≤ 4 | 2.5 | 22 | 32 | 15 (≈ 8.49 µg/mL) | 4.5 | 1.5 | Active | solubility thermodynamic at 24 h [23]: 15 µM (≈ 8.49 µg/mL); Vd [25]: 9.2 L/kg; efflux ratio [26]: 4.9
C=CC(=O)Nc1cc(-c2ncnc3[nH]cc(C(=O)OCC)c23)ccc1C | – | – | – | – | – | – | – | – | – | Activity [28]: Active; Activity [29]: Active; Activity [7]: Dose-Dependent Effect; inhibition [8]: Dose-Dependent Effect; IC50 [9]: 134 nM; inhibition [30]: inactive; inhibition [11]: Dose-Dependent Effect; Activity [12]: Non-Toxic; inhibition [13]: Dose-Dependent Effect; Activity [14]: Non-Toxic; inhibition [15]: Dose-Dependent Effect; inhibition [16]: Dose-Dependent Effect; Activity [17]: Dose-Dependent Effect; Activity [18]: Non-Toxic
CC[C@H](C(=O)Nc1cccc2c(-c3nc(Nc4cccc(S(C)(=O)=O)c4F)ncc3C)c[nH]c12)N1CCN(C)CC1 | 0.05 | – | 2.8 | 15 | 22 | 11 (≈ 6.38 µg/mL) | 2.7 | 1.6 | Active | solubility thermodynamic at 24 h [31]: 104 µM (≈ 60.3 µg/mL); Vd [25]: 9 L/kg; efflux ratio [26]: 3.6
COC[C@H](C(=O)Nc1cccc2c(-c3nc(Nc4cccc(S(C)(=O)=O)c4F)ncc3C)c[nH]c12)N1CCN(C)CC1 | 0.09 | – | 2.4 | 13 | 18 | 38 (≈ 22.6 µg/mL) | 2.3 | 0.7 | Active | solubility thermodynamic at 24 h [23]: 40 µM (≈ 23.8 µg/mL); solubility thermodynamic at 24 h [31]: 289 µM (≈ 172 µg/mL)

Source: ChEMBL document CHEMBL5365521, “Discovery of the Potent and Selective Inhaled Janus Kinase 1 Inhibitor AZD4604 and Its Preclinical Characterization” (J Med Chem, 2023)
